Laboratory results published in patent US12421237B2, “Pesticidally active heterocyclic derivatives with sulfur containing substituents” (SYNGENTA PARTICIPATIONS AG, priority 2016, dated 2025).

What was measured:
Type in all cases: in vivo
[1] = test system: Euschistus heros (Neotropical Brown Stink Bug); assay: Euschistus heros (Neotropical Brown Stink Bug) soybean leaf spray test; settings: 120 h, application rate of 200 ppm, soybean leaves sprayed, N2 nymphs, 5 days after infestation, read-out: effect in at least one of the two categories (mortality or growth inhibition)
Method: Soybean leaves on agar in 24-well microtiter plates were sprayed with aqueous test solutions prepared from 10,000 ppm DMSO stock solutions. After drying the leaves were infested with N2 nymphs. The samples were assessed for mortality and growth inhibition in comparison to untreated samples 5 days after infestation.

[2] = test system: Myzus persicae (Green Peach Aphid); assay: Myzus persicae (Green Peach Aphid): Feeding/Contact Activity; settings: foliar, 144 h, application rate of 200 ppm, sunflower leaf discs sprayed, aphid population of mixed ages, 6 days after infestation
Method: Sunflower leaf discs were placed onto agar in a 24-well microtiter plate and sprayed with aqueous test solutions prepared from 10,000 ppm DMSO stock solutions. After drying, the leaf discs were infested with an aphid population of mixed ages. The samples were assessed for mortality 6 days after infestation.

[3] = test system: Plutella xylostella (Diamond Back Moth); assay: Plutella xylostella (Diamond Back Moth) artificial diet test; settings: 120 h, application rate of 200 ppm, L2 larvae, 5 days after infestation, read-out: effect in at least one of the two categories (mortality or growth inhibition)
Method: 24-well microtiter plates with artificial diet were treated with aqueous test solutions prepared from 10,000 ppm DMSO stock solutions by pipetting. After drying, the plates were infested with L2 larvae (10 to 15 per well). The samples were assessed for mortality and growth inhibition in comparison to untreated samples 5 days after infestation.

[4] = test system: Myzus persicae (Green Peach Aphid); assay: Myzus persicae (Green Peach Aphid). Systemic Activity; settings: 144 h, test rate of 24 ppm, roots of infested pea seedlings in test solution, 6 days
Method: Roots of pea seedlings infested with an aphid population of mixed ages were placed directly into aqueous test solutions prepared from 10,000 DMSO stock solutions. The samples were assessed for mortality 6 days after placing seedlings into test solutions.

[5] = test system: Spodoptera littoralis (Egyptian Cotton Leaf Worm); assay: Spodoptera littoralis (Egyptian Cotton Leaf Worm) systemic lettuce test; settings: 144 h, test rate of 12.5 ppm, compound in agar taken up by lettuce roots, eggs, 6 days after infestation, read-out: effect in at least one of the three categories (mortality, anti-feeding, or growth inhibition)
From the text: Test compounds were applied by pipette from 10,000 ppm DMSO stock solutions into 24-well plates and mixed with agar. Lettuce seeds were placed onto the agar and the multi well plate was closed by another plate which contained also agar. After 7 days the compound was absorbed by the roots and the lettuce grew into the lid plate. The lettuce leaves were then cut off into the lid plate. Spodoptera eggs were pipetted through a plastic stencil onto a humid gel blotting paper and the lid plate was closed with it. The samples were assessed for mortality, anti-feedant effect and growth inhibition in comparison to untreated samples 6 days after infestation.

[6] = test system: Diabrotica Balteata (Corn Root Worm); assay: Diabrotica balteata (Corn Root Worm) maize sprout spray test; settings: 96 h, application rate of 200 ppm, maize sprouts sprayed, L2 larvae, 4 days after infestation, read-out: effect in at least one of the two categories (mortality or growth inhibition)
Method: Maize sprouts placed onto an agar layer in 24-well microtiter plates were treated with aqueous test solutions prepared from 10,000 ppm DMSO stock solutions by spraying. After drying, the plates were infested with L2 larvae (6 to 10 per well). The samples were assessed for mortality and growth inhibition in comparison to untreated samples 4 days after infestation.

[7] = test system: Frankliniella occidentalis (Western Flower Thrips); assay: Frankliniella occidentalis (Western Flower Thrips): Feeding/Contact Activity; settings: foliar, 168 h, application rate of 200 ppm, sunflower leaf discs sprayed, population of mixed ages, 7 days after infestation
Method: Sunflower leaf discs were placed on agar in 24-well microtiter plates and sprayed with aqueous test solutions prepared from 10,000 DMSO stock solutions. After drying the leaf discs were infested with a Frankliniella population of mixed ages. The samples were assessed for mortality 7 days after infestation.

[8] = test system: Bemisia tabaci (Cotton White Fly); assay: Bemisia tabaci (Cotton White Fly): Feeding/Contact Activity; settings: foliar, 144 h, application rate of 200 ppm, cotton leaf discs sprayed, adult white flies, 6 days after incubation
Method: Cotton leaf discs were placed on agar in 24-well microtiter plates and sprayed with aqueous test solutions prepared from 10,000 ppm DMSO stock solutions. After drying the leaf discs were infested with adult white flies. The samples were checked for mortality 6 days after incubation.

CCS(=O)(=O)c1cc(C2(C#N)CC2)cnc1-c1nc2cc(C(F)(F)F)nnc2n1C [Example H-1, 1-[5-Ethylsulfonyl-6-[7-methyl-3-(trifluoromethyl)imidazo[4,5-c]pyridazin-6-yl]-3-pyridyl]cyclopropanecarbonitrile]
≥ 80%: percent effect (mortality or growth inhibition) at 200 ppm [1] | mortality at 200 ppm [2] | percent effect (mortality or growth inhibition) at 200 ppm [3] | mortality at 24 ppm [4] | percent effect (mortality, anti-feeding or growth inhibition) at 12.5 ppm [5] | percent effect (mortality or growth inhibition) at 200 ppm [6] | mortality at 200 ppm [7] | mortality at 200 ppm [8]

CCSc1cc(C2(C#N)CC2)cnc1-c1nc2cc(C(F)(F)F)nnc2n1C [Example H-2, 1-[5-ethylsulfanyl-6-[7-methyl-3-(trifluoromethyl)imidazo[4,5-c]pyridazin-6-yl]-3-pyridyl]cyclopropanecarbonitrile]
≥ 80%: percent effect (mortality or growth inhibition) at 200 ppm [1] | percent effect (mortality or growth inhibition) at 200 ppm [3] | percent effect (mortality or growth inhibition) at 200 ppm [6] | mortality at 200 ppm [7]
